Reference: patent US10799605B2 (3B PHARMACEUTICALS GMBH, priority 2014, dated 2020)
Read-outs that look alike come from different tables or passages of the source.

Columns and labels:
GAL2 (h) = GAL2 (h) (Homo sapiens (Human), UniProt O43603); assay: ExpresSProfile: galanin receptor 2, agonist radioligand; format: binding; details: Test Concentration 1.0E−05 M
5-HT6 (h) = 5-HT6 (h) (Homo sapiens (Human), UniProt P50406); assay: ExpresSProfile: 5-hydroxytryptamine receptor 6, agonist radioligand; format: binding; details: Test Concentration 1.0E−05 M
NK3 (h) = NK3 (h) (Homo sapiens (Human), UniProt P29371); assay: ExpresSProfile: neurokinin receptor 3, antagonist radioligand; format: binding; details: Test Concentration 1.0E−05 M
[1] = Plasma stability assay, mouse plasma; format: in vitro ADME
Method: The plasma stability assay was performed to measure the degradation of compounds of the present invention in plasma. This is an important characteristic of a compound as compounds, with the exception of pro-drugs, which rapidly degrade in plasma generally show poor in vivo efficacy.
The plasma was spiked with a 10 mM analyte solution in dimethyl sulfoxide to a final concentration of 10 μM, vortexed, and aliquotted to 50 μl samples. Two aliquots were stored at −20° C. until further treatment. Another two aliquots were incubated using an Eppendorf Thermomixer at 37° C. for 1, 4, and 24 hours. Sample clean-up was performed using a protein precipitation plate (Phenomenex Strata Impact, 64722-1-324-1) and using acetonitrile as precipitation agent. […] An aliquot of 10 μl was diluted with 90 μl 0.1% aqueous trifluoroacetic acid solution. The determination of the analyte in the clean sample solutions was performed on a Thermo TSQ Quantum Ultra triple quadrupole mass spectrometer equipped with a thermo Surveyor HPLC. The chromatographic separation was carried out on a Phenomenex Kinetex XB-C18 HPLC column (50×2 mm, […] particle size) with gradient elution using a mixture of 0.01% trifluoroacetic acid and 0.05% formic acid in water as eluent A and methanol as eluent B (20% B to 100% in 8 min, 400 μl/min, 40° C.). For mass spectrometric detection the selected reaction monitoring (SRM) was used.
Quantitation was performed by external matrix calibration using an internal standard.

[2] = Plasma protein binding assay, mouse; format: in vitro ADME; details: plasma proteins, 4 h at 37° C., equilibrium dialysis, read-out: % bound [mouse] (converted)
Source text: A drug's efficiency may be affected by the degree to which it binds to the proteins within blood plasma. A drug in blood exists in two forms: bound and unbound. Depending on a specific drug's affinity for plasma protein, a proportion of the drug may become bound to plasma proteins, with the remainder being unbound. […] It is also the fraction that may be metabolized and/or excreted. Protein binding can influence the drug's biological half-life in the body. The bound portion may act as a reservoir or depot from which the drug is slowly released as the unbound form. In order to determine the binding characteristics of the compounds of the present invention as listed in the following Table to human or mouse plasma protein, respectively, a plasma protein binding assay was carried out. All compounds have a plasma protein binding that is appropriate for diagnostic, therapeutic and theranostic use of these compounds according to the present invention.
The binding of test substances to human and murine plasma proteins was tested by Cerep (Celle l'Evescault, France; Catalog reference 2194 [human] and 2223 [mouse]) according to Banker et al., J. Pharm. Sci., 2003, 92, 967-974. Test compounds were incubated with human or murine plasma proteins for 4 h at 37° C. Subsequently, the fraction of compound bound to plasma proteins was determined by equilibrium dialysis and HPLC-MS/MS detection. […]

NTR1 = NTR1 (Homo sapiens (Human), UniProt P30989); assay: Radioligand binding assay NTR1 (example part II); details: 0.05 nM 125I-(Tyr3-neurotensin), 60 min at 4° C.; read-out: IC50 [nM] RLB
Summary of the method: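 Membranes from CHO cells recombinantly expressing human NTR1 incubated with 0.05 nM 125I-(Tyr3-neurotensin) and serially diluted test compounds. Bound radioligand quantified by scintillation counting; displacement expressed as IC50.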

B2 (h) = B2 (h) (Homo sapiens (Human), UniProt P30411); assay: ExpresSProfile: bradykinin receptor 2, agonist radioligand; format: binding; details: Test Concentration 1.0E−05 M
H1 (h) = H1 (h) (Homo sapiens (Human), UniProt P35367); assay: ExpresSProfile: histamine receptor 1, antagonist radioligand; format: binding; details: Test Concentration 1.0E−05 M
Cl-channel (GABA-gated) = assay: ExpresSProfile: Cl-channel, antagonist radioligand; format: binding; details: Test Concentration 1.0E−05 M
M2 (h) = M2 (h) (Homo sapiens (Human), UniProt P08172); assay: ExpresSProfile: muscarinic receptor 2, antagonist radioligand; format: binding; details: Test Concentration 1.0E−05 M
dopamine transporter (h) = dopamine transporter (h) (Homo sapiens (Human), UniProt Q01959); assay: ExpresSProfile: dopamine transporter, antagonist radioligand; format: binding; details: Test Concentration 1.0E−05 M
Y2 (h) = Y2 (h) (Homo sapiens (Human), UniProt P49146); assay: ExpresSProfile: neuropeptide Y receptor 2, agonist radioligand; format: binding; details: Test Concentration 1.0E−05 M
alpha 2 (non-selective) = assay: ExpresSProfile: alpha2 adrenergic receptor, antagonist radioligand; format: binding; details: Test Concentration 1.0E−05 M
[3] = read-out: % Inhibition of Control Specific Binding
[4] = read-out: % of Control Specific Binding 1st
[5] = read-out: % of Control Specific Binding 2nd
[6] = read-out: % of Control Specific Binding Mean

Sequence of NK3 (h) (P29371 whole entry): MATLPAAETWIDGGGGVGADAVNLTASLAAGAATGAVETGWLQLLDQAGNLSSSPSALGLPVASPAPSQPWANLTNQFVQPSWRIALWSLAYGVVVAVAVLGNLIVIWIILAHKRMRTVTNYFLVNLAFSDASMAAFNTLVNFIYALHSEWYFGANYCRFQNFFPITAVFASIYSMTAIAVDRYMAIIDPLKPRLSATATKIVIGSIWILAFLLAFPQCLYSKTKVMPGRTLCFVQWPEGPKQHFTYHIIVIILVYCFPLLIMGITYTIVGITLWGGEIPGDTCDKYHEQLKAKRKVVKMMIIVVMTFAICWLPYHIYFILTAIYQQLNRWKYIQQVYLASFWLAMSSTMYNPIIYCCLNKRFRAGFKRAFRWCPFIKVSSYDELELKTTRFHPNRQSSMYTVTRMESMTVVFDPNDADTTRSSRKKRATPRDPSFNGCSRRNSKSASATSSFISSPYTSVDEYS
Sequence of GAL2 (h) (O43603 whole entry): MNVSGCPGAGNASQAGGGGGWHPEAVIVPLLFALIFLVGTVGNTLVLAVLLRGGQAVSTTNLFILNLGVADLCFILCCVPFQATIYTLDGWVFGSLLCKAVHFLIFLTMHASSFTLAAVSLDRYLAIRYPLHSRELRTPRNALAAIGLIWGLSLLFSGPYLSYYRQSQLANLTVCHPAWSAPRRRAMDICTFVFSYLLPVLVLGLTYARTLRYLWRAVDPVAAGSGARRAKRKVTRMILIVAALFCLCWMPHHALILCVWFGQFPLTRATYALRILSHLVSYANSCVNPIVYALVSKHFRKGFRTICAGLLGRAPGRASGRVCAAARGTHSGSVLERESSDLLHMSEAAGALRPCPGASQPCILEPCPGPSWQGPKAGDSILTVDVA
Sequence of 5-HT6 (h) (P50406 whole entry): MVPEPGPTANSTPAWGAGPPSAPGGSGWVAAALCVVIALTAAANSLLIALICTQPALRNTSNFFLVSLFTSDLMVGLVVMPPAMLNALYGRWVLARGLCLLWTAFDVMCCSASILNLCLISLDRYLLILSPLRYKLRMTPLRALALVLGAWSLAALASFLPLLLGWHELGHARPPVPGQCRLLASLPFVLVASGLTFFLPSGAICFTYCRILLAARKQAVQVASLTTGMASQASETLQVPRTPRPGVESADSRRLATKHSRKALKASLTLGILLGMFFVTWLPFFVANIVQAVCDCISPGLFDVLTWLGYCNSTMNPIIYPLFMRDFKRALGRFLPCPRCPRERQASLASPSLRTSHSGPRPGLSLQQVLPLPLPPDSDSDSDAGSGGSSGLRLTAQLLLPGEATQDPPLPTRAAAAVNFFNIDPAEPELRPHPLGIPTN
Sequence of Y2 (h) (P49146 whole entry): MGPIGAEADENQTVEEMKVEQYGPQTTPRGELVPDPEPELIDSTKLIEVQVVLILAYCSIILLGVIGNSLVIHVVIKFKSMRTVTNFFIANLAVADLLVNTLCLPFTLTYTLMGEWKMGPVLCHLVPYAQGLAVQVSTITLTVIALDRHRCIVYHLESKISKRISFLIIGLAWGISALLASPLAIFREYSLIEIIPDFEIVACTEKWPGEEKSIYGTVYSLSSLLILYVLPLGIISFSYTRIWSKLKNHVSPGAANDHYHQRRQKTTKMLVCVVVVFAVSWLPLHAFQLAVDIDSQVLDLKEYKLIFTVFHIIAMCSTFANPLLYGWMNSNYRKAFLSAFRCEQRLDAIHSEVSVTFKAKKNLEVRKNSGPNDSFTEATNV
Sequence of dopamine transporter (h) (Q01959 whole entry): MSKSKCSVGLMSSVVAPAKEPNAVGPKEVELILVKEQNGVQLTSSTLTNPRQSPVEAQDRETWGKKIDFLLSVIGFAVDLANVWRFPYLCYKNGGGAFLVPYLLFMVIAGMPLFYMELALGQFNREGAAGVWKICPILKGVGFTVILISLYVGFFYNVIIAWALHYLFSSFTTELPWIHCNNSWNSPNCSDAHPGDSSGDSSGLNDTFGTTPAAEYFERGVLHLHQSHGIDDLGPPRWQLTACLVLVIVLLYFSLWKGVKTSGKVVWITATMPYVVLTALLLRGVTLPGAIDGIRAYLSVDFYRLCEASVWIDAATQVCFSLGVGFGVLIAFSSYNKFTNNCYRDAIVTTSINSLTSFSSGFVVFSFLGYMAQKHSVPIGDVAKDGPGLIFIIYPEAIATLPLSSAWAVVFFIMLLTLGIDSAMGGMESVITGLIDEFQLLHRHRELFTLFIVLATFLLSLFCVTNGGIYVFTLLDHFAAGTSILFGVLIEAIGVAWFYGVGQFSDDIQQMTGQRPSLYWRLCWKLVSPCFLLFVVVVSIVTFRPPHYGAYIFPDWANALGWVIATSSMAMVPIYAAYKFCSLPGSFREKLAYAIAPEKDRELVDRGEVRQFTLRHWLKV
Sequence of B2 (h) (P30411 whole entry): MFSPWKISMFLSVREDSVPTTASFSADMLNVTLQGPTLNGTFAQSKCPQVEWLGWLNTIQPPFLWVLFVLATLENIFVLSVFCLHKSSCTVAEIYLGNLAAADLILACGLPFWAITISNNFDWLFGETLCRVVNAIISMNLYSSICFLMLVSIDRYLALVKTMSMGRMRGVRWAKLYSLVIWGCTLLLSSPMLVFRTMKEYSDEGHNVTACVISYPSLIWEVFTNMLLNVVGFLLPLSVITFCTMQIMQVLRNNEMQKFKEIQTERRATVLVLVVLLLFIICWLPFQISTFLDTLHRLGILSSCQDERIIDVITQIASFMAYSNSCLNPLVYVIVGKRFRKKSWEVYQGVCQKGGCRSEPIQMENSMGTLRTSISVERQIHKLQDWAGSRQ
Sequence of H1 (h) (P35367 whole entry): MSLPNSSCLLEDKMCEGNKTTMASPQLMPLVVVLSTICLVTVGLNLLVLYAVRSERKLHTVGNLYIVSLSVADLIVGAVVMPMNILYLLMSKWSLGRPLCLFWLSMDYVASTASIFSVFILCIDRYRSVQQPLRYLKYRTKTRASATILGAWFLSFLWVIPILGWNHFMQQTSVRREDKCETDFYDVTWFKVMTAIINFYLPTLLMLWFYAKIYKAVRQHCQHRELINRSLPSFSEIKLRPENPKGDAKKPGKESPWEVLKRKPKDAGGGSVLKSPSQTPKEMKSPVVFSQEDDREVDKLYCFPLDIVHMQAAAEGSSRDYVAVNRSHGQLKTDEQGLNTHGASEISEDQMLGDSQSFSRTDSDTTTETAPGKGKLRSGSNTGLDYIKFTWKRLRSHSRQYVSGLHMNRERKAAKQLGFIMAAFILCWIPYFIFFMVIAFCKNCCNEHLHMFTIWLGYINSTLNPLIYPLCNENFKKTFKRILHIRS
Sequence of M2 (h) (P08172 whole entry): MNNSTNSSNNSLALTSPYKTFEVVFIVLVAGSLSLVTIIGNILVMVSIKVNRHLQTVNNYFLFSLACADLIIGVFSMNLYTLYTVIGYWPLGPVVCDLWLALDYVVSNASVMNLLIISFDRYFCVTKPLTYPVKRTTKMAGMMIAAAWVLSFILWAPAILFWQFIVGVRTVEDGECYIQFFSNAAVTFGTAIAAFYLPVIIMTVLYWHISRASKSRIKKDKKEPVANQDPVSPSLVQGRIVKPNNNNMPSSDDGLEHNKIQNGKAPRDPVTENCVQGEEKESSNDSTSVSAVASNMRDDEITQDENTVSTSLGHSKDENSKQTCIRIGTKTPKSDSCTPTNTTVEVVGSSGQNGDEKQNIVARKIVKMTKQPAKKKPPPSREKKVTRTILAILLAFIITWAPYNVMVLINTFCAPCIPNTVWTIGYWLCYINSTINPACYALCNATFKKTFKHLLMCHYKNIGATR
Sequence of NTR1 (P30989 whole entry): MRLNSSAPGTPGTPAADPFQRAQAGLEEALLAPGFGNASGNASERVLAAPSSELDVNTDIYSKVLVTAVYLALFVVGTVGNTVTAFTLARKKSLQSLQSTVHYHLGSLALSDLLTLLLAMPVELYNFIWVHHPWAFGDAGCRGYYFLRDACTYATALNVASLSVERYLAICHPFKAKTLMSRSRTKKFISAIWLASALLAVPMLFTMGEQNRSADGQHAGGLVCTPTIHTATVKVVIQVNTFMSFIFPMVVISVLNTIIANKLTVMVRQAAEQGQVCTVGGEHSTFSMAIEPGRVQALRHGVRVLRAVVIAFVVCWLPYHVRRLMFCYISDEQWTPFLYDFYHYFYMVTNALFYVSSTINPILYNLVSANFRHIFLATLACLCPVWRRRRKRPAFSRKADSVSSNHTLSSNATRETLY

COc1cccc(OC)c1-c1cc(C(=O)NC2(C(=O)O)C3CC4CC(C3)CC2C4)nn1-c1ccc(C(=O)N(C)CCCN(C)CCCN(C)C(=O)CN2CCN(CC(=O)O)CCN(CC(=O)O)CCN(CC(=O)O)CC2)cc1C(C)C (centres unmarked) [(IIIa), 2-{[1-{4-[(3-{[3-(DOTA-methyl-amino)-propyl]-methyl-amino}-propyl)-methyl-carbamoyl]-2-isopropyl-phenyl}-5-(2,6-dimethoxy-phenyl)-1H-pyrazole-3-carbonyl]-amino}-adamantane-2-carboxylic acid]
inhibition at 10 µM (GAL2 (h); [3]): 1%
remaining activity at 10 µM (GAL2 (h); [4]): 96.5%
remaining activity at 10 µM (GAL2 (h); [5]): 102%
remaining activity at 10 µM (GAL2 (h); [6]): 99.3%
inhibition at 10 µM (5-HT6 (h); [3]): -6%
remaining activity at 10 µM (5-HT6 (h); [4]): 106%
remaining activity at 10 µM (5-HT6 (h); [5]): 105%
remaining activity at 10 µM (5-HT6 (h); [6]): 106%
inhibition at 10 µM (NK3 (h); [3]): -1%
remaining activity at 10 µM (NK3 (h); [4]): 102%
remaining activity at 10 µM (NK3 (h); [5]): 98.5%
remaining activity at 10 µM (NK3 (h); [6]): 100%
stability in mouse plasma [1]: highly stable
% remaining after 24 h incubation, Mouse plasma ([1]; 10 μM, 37° C., 24 h): >80%
fraction unbound at 4 h [2]: 0.11
IC50 (NTR1): 2.9 nM
inhibition at 10 µM (B2 (h); [3]): 11%
remaining activity at 10 µM (B2 (h); [4]): 98.7%
remaining activity at 10 µM (B2 (h); [5]): 79.9%
remaining activity at 10 µM (B2 (h); [6]): 89.3%
inhibition at 10 µM (H1 (h); [3]): -12%
remaining activity at 10 µM (H1 (h); [4]): 121%
remaining activity at 10 µM (H1 (h); [5]): 103%
remaining activity at 10 µM (H1 (h); [6]): 112%
% Inhibition of Control Specific Binding (Cl-channel (GABA-gated)): 2%
% of Control Specific Binding 1st (Cl-channel (GABA-gated)): 106.5%
% of Control Specific Binding 2nd (Cl-channel (GABA-gated)): 89.1%
% of Control Specific Binding Mean (Cl-channel (GABA-gated)): 97.8%
inhibition at 10 µM (M2 (h); [3]): -17%
remaining activity at 10 µM (M2 (h); [4]): 124%
remaining activity at 10 µM (M2 (h); [5]): 111%
remaining activity at 10 µM (M2 (h); [6]): 117%
inhibition at 10 µM (dopamine transporter (h); [3]): -15%
remaining activity at 10 µM (dopamine transporter (h); [4]): 124%
remaining activity at 10 µM (dopamine transporter (h); [5]): 106%
remaining activity at 10 µM (dopamine transporter (h); [6]): 115%
inhibition at 10 µM (Y2 (h); [3]): -23%
remaining activity at 10 µM (Y2 (h); [4]): 130%
remaining activity at 10 µM (Y2 (h); [5]): 116%
remaining activity at 10 µM (Y2 (h); [6]): 123%
% Inhibition of Control Specific Binding (alpha 2 (non-selective)): −10%
% of Control Specific Binding 1st (alpha 2 (non-selective)): 114.4%
% of Control Specific Binding 2nd (alpha 2 (non-selective)): 106.1%
% of Control Specific Binding Mean (alpha 2 (non-selective)): 110.3%
